US9233121B2, “Compositions and methods for the treatment of cancer” (BOARD OF REGENTS OF THE UNIVERSITY OF NEBRASKA, priority 2011, dated 2016)

Tests used:
Format in all cases: cell-based, human
SW1990-SP cells [1] = assay: Drug sensitivity: gemcitabine treatment of SP cells; conditions: 6.0 μM gemcitabine, 4, 10 and 20 days
Experimental: (§1) Both SP and NSP cells were cultured in gelatinized tissue culture dishes in stem cell specific medium containing Dulbecco's Modified Eagle's Medium (DMEM; GIBCO) and F12 supplemented with 10% ES specific fetal bovine serum (FBS; Invitrogen), L-glutamine (GIBCO), 100 nM nonessential amino acids (GIBCO), 1000 U/ml LIF (Sigma), bFGF (Invitrogen) and Pen/Strp. Two different conditions were maintained for both SP and NSP cells. First, both SP and NSP cells were maintained in the above-mentioned stem cell specific media and in another condition both the cells were maintained for a few days in 10% FBS containing DMEM media which was replaced with stem cell specific medium. The SP cells have also been grown in stem cell specific media and NSP cells have been grown in 10% FBS containing DMEM media.
(§2) The human hPaf1/PD2 region was targeted with specific siRNA (sequence 5′-[…]-3′; SEQ ID NO: 1). Synthetic sense and antisense oligonucleotides (Dharmacon, Lafayette, Colo.) were annealed in 100 mM potassium acetate, 30 mM HEPES-KOH (pH 7.4), and 2 mM magnesium acetate for one minute at 90° C. and one hour at 37° C., and frozen. […]
(§3) Tumor relapse occurs in cancer patients due to the important phenomena known as drug resistance. […] The expression of ALDH1 was analyzed in the gemcitabine treated SW1990-SP cells.

SW1990-SP cells [2] = assay: hPaf1/PD2 knockdown with gemcitabine treatment in SP cells: phenotype, viability, FACS apoptosis
Experimental: The human hPaf1/PD2 region was targeted with specific siRNA (sequence 5′-[…]-3′; SEQ ID NO: 1). Synthetic sense and antisense oligonucleotides (Dharmacon, Lafayette, Colo.) were annealed in 100 mM potassium acetate, 30 mM HEPES-KOH (pH 7.4), and 2 mM magnesium acetate for one minute at 90° C. and one hour at 37° C., and frozen. Oligonucleotides were transfected into cells with TransIT-TKO (Mirus, Madison, Wis.) in accordance with the supplier's recommendations. Gemcitabine (6 μM) treatment was done for 20 days.
Following the previous drug sensitivity experiment, hPaf1/PD2 was transiently knocked down using RNAi oligos. The knockdown was carried out in vitro under stem cell specific culture condition.

hPaf1/PD2 = assay: Western blot of hPaf1/PD2 in gemcitabine treated SP cells; conditions: gemcitabine (6 μM) treated SW1990-SP cells compared to untreated SP cells
Experimental: (§4) SP and NSP cells were processed for protein extraction and western blotting using standard procedures. Briefly, the cells were washed twice in PBS and lysed in RIPA buffer (100 mM Tris, 5 mM EDTA, 5% NP40; pH8.0) containing protease inhibitors (1 mM phenyl-methyl sulphonyl fluoride, 1 μg/ml aprotinin, 1 μg/ml leupeptin) and kept at 4° C. and supernatant were collected. Resolved proteins were transferred on to the PVDF membrane. After a quick wash in PBST (Phosphate buffered saline and 0.1% Tween 20), the membranes were blocked in 5% nonfat dry milk in PBS for at least 1 hour and then incubated with primary antibodies (anti-hPaf1/PD2, anti-ALDH1, anti-CD133, anti-CD44, anti-Shh and anti-β-actin) (diluted in 3% BSA in PBS) for overnight at 4° C. Then the membrane was washed (3×10 minutes) in PBST at room temperature and probed with 1:2000 diluted horseradish peroxidase-conjugated anti-mouse or anti-rabbit secondary antibodies for 1 hour at room temperature and washed 5×10 minutes with PBST. The signal was detected with an ECL chemiluminescence kit (Amersham Bioscience, UK).

SW1990 NSP cells = assay: Drug sensitivity: gemcitabine treatment of NSP cells; conditions: 6.0 μM gemcitabine, several days
Experimental: as §1, §2, §3

ALDH1 = assay: Western blot of ALDH1 in gemcitabine treated SP cells; conditions: gemcitabine (6 μM) treated SW1990-SP cells compared to non-treated SP cells
Experimental: as §4, §3

Nc1ccn([C@@H]2O[C@H](CO)[C@@H](O)C2(F)F)c(=O)n1 [gemcitabine]
growth of SP cells on drug treatment (SW1990-SP cells [1]): continued to grow even after 4, 10 and 20 days of treatment
percentage of cell death (FACS-apoptosis analysis, PI staining) (SW1990-SP cells [2]; hPaf1/PD2 knockdown SP cells with gemcitabine treatment compared to control cells): increased percentage of cell death
viability of SP cells (SW1990-SP cells [2]; seven days gemcitabine with transient knockdown (72 hours) of hPaf1/PD2 in SW1990-SP cells): decreased the viability of SP cells
expression of hPaf1/PD2 (western blot) (hPaf1/PD2): maintained
cell death of NSP cells on drug treatment (SW1990 NSP cells): Cell death was observed
expression of ALDH1 (western blot) (ALDH1): significantly elevated expression of ALDH1
